Each block holds one molecule with its values, some of them ahead of it.
Experiments:
P-glycoprotein [1] = details: fresh young rat skin
Procedure: Excised skin samples of both young and aged rats were obtained in the same way. Animals were anaesthetized intraperitoneally with chloral hydrate using a dose of 400 mg/kg. Under anesthesia, the hair of the abdominal skin was shaved off with an electric shaver, then epilated by an epilator cream (ISANA® cream from Rossmann, Burgwedel, Germany). Finally, the skin surface was washed and wiped dry. The abdominal skin was then mechanically sensitized 10 times by tape stripping (10 TS) with leucoplast (BSN Medical GmbH, Hamburg, Germany) to remove the upper layers of dead keratinocytes. The removal of the upper skin layer of the stratum corneum by adhesive tape has become a common practice in recent decades. The determination of the kinetics and penetration depth of different drugs by creating concentration–time profiles is facilitated by the use of the noninvasive method of tape stripping. Tape stripping makes it easier to evaluate the bioequivalence of topical dermatological dosage forms, and also makes it possible to reach detectable concentrations in the dermis and subcutis in preclinical animal models. […] Following these skin preparations, an approximately 1-cm, full-thickness skin incision was made in the caudal part of the abdominal area using scissors. After the first cutting with blunt Metzen scissors, fat, connecting tissue and blood vessels were carefully removed. Then, there were two options for continuing with the preparations, as follows. (1) Fresh skin preparation: Six skin disc-preparations were made from the abdominal, tape-stripped skin (approximately 3 cm in diameter each) for Franz diffusion cell study, or three skin square-preparations (approx. 1.5 cm × 1.5 cm) for skin-on-a-chip experiments. The skin preparations were stored in PPF at room temperature until the initiation of experiments, and were then placed between the donor and acceptor chambers on the cells of the Franz diffusion system or on the chip device. […]

P-glycoprotein [2] = type: in vitro ADME
Procedure: Excised skin samples of both young and aged rats were obtained in the same way. Animals were anaesthetized intraperitoneally with chloral hydrate using a dose of 400 mg/kg. Under anesthesia, the hair of the abdominal skin was shaved off with an electric shaver, then epilated by an epilator cream (ISANA® cream from Rossmann, Burgwedel, Germany). Finally, the skin surface was washed and wiped dry. The abdominal skin was then mechanically sensitized 10 times by tape stripping (10 TS) with leucoplast (BSN Medical GmbH, Hamburg, Germany) to remove the upper layers of dead keratinocytes. The removal of the upper skin layer of the stratum corneum by adhesive tape has become a common practice in recent decades. The determination of the kinetics and penetration depth of different drugs by creating concentration–time profiles is facilitated by the use of the noninvasive method of tape stripping. Tape stripping makes it easier to evaluate the bioequivalence of topical dermatological dosage forms, and also makes it possible to reach detectable concentrations in the dermis and subcutis in preclinical animal models. […] Following these skin preparations, an approximately 1-cm, full-thickness skin incision was made in the caudal part of the abdominal area using scissors. After the first cutting with blunt Metzen scissors, fat, connecting tissue and blood vessels were carefully removed. Then, there were two options for continuing with the preparations, as follows. (1) Fresh skin preparation: Six skin disc-preparations were made from the abdominal, tape-stripped skin (approximately 3 cm in diameter each) for Franz diffusion cell study, or three skin square-preparations (approx. 1.5 cm × 1.5 cm) for skin-on-a-chip experiments. The skin preparations were stored in PPF at room temperature until the initiation of experiments, and were then placed between the donor and acceptor chambers on the cells of the Franz diffusion system or on the chip device. The stratum corneum layer of the skin contacted the test drug formulation, facing the donor chamber, while the dermal/subcutaneous surface contacted the PPF in the acceptor compartments. (2) Frozen skin preparation: Freshly prepared, tape stripped skin preparations were wrapped in an aluminum foil and stored in a deep freezer at −80 °C until the diffusion experiments. On the day of the study, the skin preparations were thawed at room temperature, and then placed on the Franz diffusion cells/chip devices in a similar way as that described for fresh skin preparation.
Hanson 6-Cell Manual Diffusion Test System-type Franz diffusion cells were used in the experiments (Hanson, ABL&E-JASCO Hungary Kft, Budapest, Hungary).
In each unit of the system, there was a heated magnetic stirrer chamber (acceptor compartment), stirred by a helical mixer (Figure 1). A magnet was placed on the bottom of the chamber and the helical mixer was connected to it. The acceptor chambers of the diffusion cells were filled with PPF. […] The diffusion surface was 1.767 cm^2. In the final step, a glass lid was placed onto the donor chambers. In each experiment, six parallel units were used and three cells of them always had the same arrangement with the same conditions. The cells were connected by plastic tubes. In these plastic connectors, distilled water at 32 °C was circulated to mimic the physiological dermal temperature. […] First, 0.5 mL samples were taken every 30 min from the acceptor compartments. After each sample collection, the removed fluid volume was replaced with PPF. Altogether, 60 samples were taken in each experiment, i.e., 10 from each unit. The collected samples were immediately placed on dry ice and stored at −80 °C until bioanalysis.
The dwell time of the transitions was 300 msec. Source conditions were as follows.

P-gp = system: P-gp; design: method as in PMID 18725258; details: in vivo penetration experiments; cited from earlier work
P-glycoprotein [3] = details: topical PSC-833; erythromycin creams
Procedure: In the current study, a transdermal microdialysis technique was applied to investigate the skin penetration of test compounds through the dermal skin layer in anesthetized rats [24].
First, the epilation and shaving of the abdominal skin surface were performed under slight anesthesia, according to the protocol described in the ex vivo studies section.
The experiments were conducted the day after the skin preparation in order to eliminate the possible effect of the epilator cream and the dermal trauma caused by shaving. Animals were reanesthetized intraperitoneally with chloral hydrate with a dose of 400 mg/kg, and fixed in a supine position. In order to keep their body temperature at 37 °C during the experiment, they were placed on a heating pad. The abdominal skin was wiped dry and mechanically sensitized 10 times by tape-stripping with leucoplast (BSN Medical GmbH, Hamburg, Germany).
Two microdialysis probes (MAB11.8.10, Microbiotech, Stockholm, Sweden) were introduced in parallel at a distance of 2 cm through a guide needle (18G) into the dermal tissue. After the withdrawal of the guide needle, the probe membrane stayed in the dermal tissue, the position of which was previously verified by ultrasonic scanning. Probes were then fixed carefully with tape (Omnisilk, Hartmann, Germany).

[4] = no source given; cited from earlier work

Molecule: C=C[C@H]1C[N@@]2CC[C@H]1C[C@@H]2[C@@H](O)c1ccnc2ccc(OC)cc12 [quinidine]
- effect of P-gp inhibition on transdermal delivery (P-glycoprotein [1]; 2% gel, PSC-833 pretreatment): dramatic reduction in transdermal delivery
- plateau phase of skin penetration profile (P-glycoprotein [1]; 2% gel, flow 4 μL/min): 90 to 180 min
- permeability of the controls, aged vs young skin (P-glycoprotein [2]; fresh skins, DMSO pretreated, 2% QND cream): independent of age

Molecule: CCC(C)n1ncn(-c2ccc(N3CCN(c4ccc(OCC5COC(Cn6cncn6)(c6ccc(Cl)cc6Cl)O5)cc4)CC3)cc2)c1=O (stereo not shown) [itraconazole]
- drug distribution in the skin after topical application with lack of or inhibition of P-gp (P-gp): decreased drug distributions therein

- effect of PSC-833 pretreatment on erythromycin permeability (AUC) (P-glycoprotein [2]; fresh skins, young and aged, 2% ERY cream, PSC-833 1 mg/mL DMSO, 100 μL, 10 min before, ANOVA, Tukey test): significant effect on permeability
- effect of P-gp inhibitor on erythromycin absorption (P-glycoprotein [2]; frozen aged skin, 2% ERY cream): opposite effect
Molecule: C/C=C/C[C@@H](C)C(=O)[C@H]1C(=O)N[C@@H](C(C)C)C(=O)N(C)CC(=O)N(C)[C@@H](CC(C)C)C(=O)N[C@@H](C(C)C)C(=O)N(C)[C@@H](CC(C)C)C(=O)N[C@@H](C)C(=O)N[C@H](C)C(=O)N(C)[C@@H](CC(C)C)C(=O)N(C)[C@@H](CC(C)C)C(=O)N(C)[C@@H](C(C)C)C(=O)N1C [PSC-833, valspodar]
- effect of PSC-833 pretreatment on quinidine permeability (AUC) (P-glycoprotein [2]; fresh skins, young and aged, 2% QND cream, ANOVA, Tukey test): statistically relevant effect only on aged subjects

- diffusion through frozen/thawed vs fresh skin (P-glycoprotein [2]; 2% ERY cream): enhanced compared to fresh skins
- permeability in aged vs young skin (P-glycoprotein [2]; 2% ERY cream): increased in the aged skin samples
Molecule: CC[C@H]1OC(=O)[C@H](C)[C@@H](O[C@H]2C[C@@](C)(OC)[C@@H](O)[C@H](C)O2)[C@H](C)[C@@H](O[C@@H]2O[C@H](C)C[C@H](N(C)C)[C@H]2O)[C@](C)(O)C[C@@H](C)C(=O)[C@H](C)[C@@H](O)[C@]1(C)O [erythromycin, Erythromycin]
- dynamics of absorption in the 270-min observation period (P-glycoprotein [1]; 2% suspension cream): only the absorption phase could be reached, or the plateau was initiated
- effect of P-gp modulation on drug absorption in vivo (P-glycoprotein [3]): moderate but reproducible reduction in drug absorption
- logP (lipophilicity) [4]: 3.06

Molecule: rhodamine
- drug distribution in the skin after topical application with lack of or inhibition of P-gp (P-gp): decreased drug distributions therein

From paper PMC7559210, “Verification of P-Glycoprotein Function at the Dermal Barrier in Diffusion Cells and Dynamic “Skin-On-A-Chip” Microfluidic Device” (Pharmaceutics, 2020)
